Literature values as cited in US12350296B2, “Liquid propolis extract, its formulation and use thereof” (Apiotix Technologies D.O.O., priority 2019, dated 2025).
Where two headings read alike, the source gives them in different places.

System: subclinical mastitis
Details: for healing (cure) of cases: subclinical mastitis caused by S. uberis

Row | SMILES | bacteriological cure (daily i.mam. application during 8 days) [%] | bacteriological cure (i.mam. application, after 5 days) [%] | healing (cure) of cases (therapy for 5 days) [%] | healing (cure) of cases (therapy for 8 days) [%] | healing (cure) of cases (two-day therapy) [%]
1 | CO/N=C(\C(=O)N[C@@H]1C(=O)N2C(C(=O)O)=C(CSC(=O)c3ccco3)CS[C@H]12)c1csc(N)n1 [ceftiofur] | 66 | 54 |  |  | 
2 | CC[C@@H]1CCN[C@H](C(=O)N[C@@H]([C@H]2O[C@H](SC)[C@H](O)[C@@H](O)[C@H]2O)[C@H](C)Cl)C1 [pirlimycin] |  |  | 68.8 | 80 | 58.1
